Data published in ChEMBL document CHEMBL4507291 (2021).

Legend:
[1] = target: T1, Discoidin domain-containing receptor 2 (Homo sapiens) (UniProt Q16832); assay: DDR2 Kinase screen; details: Compound concentration 1.0 uM
T1 sequence (whole entry): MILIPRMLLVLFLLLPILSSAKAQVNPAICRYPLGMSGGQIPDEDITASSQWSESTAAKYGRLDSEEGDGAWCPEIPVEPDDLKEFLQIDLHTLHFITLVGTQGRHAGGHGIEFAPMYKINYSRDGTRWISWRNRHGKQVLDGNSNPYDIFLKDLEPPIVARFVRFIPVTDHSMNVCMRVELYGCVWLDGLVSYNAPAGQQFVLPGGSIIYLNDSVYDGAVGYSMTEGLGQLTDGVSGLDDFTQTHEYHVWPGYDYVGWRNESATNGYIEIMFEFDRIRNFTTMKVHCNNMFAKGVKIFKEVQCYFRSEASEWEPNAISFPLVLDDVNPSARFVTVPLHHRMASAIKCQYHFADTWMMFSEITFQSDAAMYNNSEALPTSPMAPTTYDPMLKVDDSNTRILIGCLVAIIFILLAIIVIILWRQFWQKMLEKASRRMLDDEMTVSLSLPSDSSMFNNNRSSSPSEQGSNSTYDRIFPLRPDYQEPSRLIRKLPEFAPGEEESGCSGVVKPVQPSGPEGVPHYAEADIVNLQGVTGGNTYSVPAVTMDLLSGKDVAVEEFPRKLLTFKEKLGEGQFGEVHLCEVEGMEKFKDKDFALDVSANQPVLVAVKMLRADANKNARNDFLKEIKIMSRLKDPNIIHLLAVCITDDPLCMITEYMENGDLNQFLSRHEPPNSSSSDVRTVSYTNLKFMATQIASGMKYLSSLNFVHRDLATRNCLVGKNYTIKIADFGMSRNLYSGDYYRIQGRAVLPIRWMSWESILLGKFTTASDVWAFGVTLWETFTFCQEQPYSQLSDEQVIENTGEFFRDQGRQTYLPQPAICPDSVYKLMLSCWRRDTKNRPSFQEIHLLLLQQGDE

[2] = target: Sodium-dependent serotonin transporter (Homo sapiens) (UniProt P31645); details: Compound concentration 10.0 uM
[3] = target: T2, Inhibitor of nuclear factor kappa-B kinase subunit epsilon (Homo sapiens) (UniProt Q14164); assay: IKBKE (IKK epsilon) Kinase screen; details: Compound concentration 1.0 uM
T2 sequence (whole entry): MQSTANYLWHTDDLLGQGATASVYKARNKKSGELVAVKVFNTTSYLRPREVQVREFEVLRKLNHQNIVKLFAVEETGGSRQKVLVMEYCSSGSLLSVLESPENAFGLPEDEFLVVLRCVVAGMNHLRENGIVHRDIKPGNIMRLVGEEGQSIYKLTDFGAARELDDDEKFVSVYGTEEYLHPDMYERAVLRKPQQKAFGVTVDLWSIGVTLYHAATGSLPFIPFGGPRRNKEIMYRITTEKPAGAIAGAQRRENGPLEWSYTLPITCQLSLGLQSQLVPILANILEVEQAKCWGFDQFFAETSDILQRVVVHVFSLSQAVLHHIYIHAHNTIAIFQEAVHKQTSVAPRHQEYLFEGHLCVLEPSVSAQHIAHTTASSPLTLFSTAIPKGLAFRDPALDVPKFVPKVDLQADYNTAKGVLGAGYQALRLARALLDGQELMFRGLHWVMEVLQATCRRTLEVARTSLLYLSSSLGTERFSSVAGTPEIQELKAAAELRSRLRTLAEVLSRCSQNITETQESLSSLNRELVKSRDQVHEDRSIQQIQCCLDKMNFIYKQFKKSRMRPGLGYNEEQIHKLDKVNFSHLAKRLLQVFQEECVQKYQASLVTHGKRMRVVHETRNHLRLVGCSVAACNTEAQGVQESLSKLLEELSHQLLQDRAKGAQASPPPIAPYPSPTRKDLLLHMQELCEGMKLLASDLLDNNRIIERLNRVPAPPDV

[4] = target: PI3-kinase p110-alpha/p85-alpha (Homo sapiens) (UniProt P27986+P42336); assay: PIK3CA/PIK3R1 (p110 alpha/p85 alpha) Kinase screen; assay type: protein-complex assay; details: Compound concentration 1.0 uM
[5] = target: T3, Muscarinic acetylcholine receptor M5 (Homo sapiens) (UniProt P08912); assay: Inhibition of Muscarinic M5 at 10 µM in the Eurofins-Panlabs radioligand binding assay (Eurofins_assay_253010); parameters: ligand concentration 0.8 nM; details: Compound concentration 10.0 uM
T3 sequence (whole entry): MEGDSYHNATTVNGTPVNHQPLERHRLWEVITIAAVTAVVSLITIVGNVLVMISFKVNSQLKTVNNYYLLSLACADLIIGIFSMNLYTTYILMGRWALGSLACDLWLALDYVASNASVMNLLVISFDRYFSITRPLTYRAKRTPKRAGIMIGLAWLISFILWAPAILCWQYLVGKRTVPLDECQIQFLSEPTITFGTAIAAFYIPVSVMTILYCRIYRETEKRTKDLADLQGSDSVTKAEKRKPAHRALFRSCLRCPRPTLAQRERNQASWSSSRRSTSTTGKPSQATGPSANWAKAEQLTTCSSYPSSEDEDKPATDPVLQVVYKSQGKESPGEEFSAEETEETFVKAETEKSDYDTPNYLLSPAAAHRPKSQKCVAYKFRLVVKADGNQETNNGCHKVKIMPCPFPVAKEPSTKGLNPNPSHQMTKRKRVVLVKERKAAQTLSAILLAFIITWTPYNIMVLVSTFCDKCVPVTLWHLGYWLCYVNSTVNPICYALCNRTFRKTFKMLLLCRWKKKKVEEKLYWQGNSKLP

[6] = target: Casein kinase I isoform gamma-3 (Homo sapiens) (UniProt Q9Y6M4); assay: CSNK1G3 (CK1 gamma 3) Kinase screen; details: Compound concentration 1.0 uM
[7] = target: cAMP-dependent protein kinase catalytic subunit alpha (Homo sapiens) (UniProt P17612); assay: PRKACA (PKA) Kinase screen; details: Compound concentration 1.0 uM
[8] = target: Beta-3 adrenergic receptor (Homo sapiens) (UniProt P13945); details: Compound concentration 10.0 uM
[9] = target: T4, 5-hydroxytryptamine receptor 2C (Homo sapiens) (UniProt P28335); details: Compound concentration 10.0 uM
T4 sequence (whole entry): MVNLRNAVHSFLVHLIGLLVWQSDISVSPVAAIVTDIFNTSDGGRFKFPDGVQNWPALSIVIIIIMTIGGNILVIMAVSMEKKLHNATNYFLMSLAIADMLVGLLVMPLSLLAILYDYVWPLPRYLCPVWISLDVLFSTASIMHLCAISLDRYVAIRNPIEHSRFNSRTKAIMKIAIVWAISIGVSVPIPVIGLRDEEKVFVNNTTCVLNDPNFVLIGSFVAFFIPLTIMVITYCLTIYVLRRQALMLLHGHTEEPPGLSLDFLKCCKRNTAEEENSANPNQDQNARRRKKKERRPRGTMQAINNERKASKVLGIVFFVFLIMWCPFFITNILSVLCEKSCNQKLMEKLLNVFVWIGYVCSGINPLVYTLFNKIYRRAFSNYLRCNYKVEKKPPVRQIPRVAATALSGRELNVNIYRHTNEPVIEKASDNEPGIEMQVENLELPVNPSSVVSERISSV

Measured: inhibition

Chain of Beta-3 adrenergic receptor (Homo sapiens) (P13945 whole entry, looked up): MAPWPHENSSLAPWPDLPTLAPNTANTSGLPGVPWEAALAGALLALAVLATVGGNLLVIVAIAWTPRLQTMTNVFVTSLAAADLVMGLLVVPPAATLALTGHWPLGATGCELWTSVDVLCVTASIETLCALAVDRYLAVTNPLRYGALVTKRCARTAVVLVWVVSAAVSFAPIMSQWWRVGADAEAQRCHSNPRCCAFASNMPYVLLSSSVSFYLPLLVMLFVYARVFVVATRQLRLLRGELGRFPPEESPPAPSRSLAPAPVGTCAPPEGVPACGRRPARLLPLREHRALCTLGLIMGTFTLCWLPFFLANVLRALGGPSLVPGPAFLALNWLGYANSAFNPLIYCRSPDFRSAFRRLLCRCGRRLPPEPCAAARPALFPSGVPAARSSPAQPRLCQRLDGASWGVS
Chain of Casein kinase I isoform gamma-3 (Homo sapiens) (Q9Y6M4 whole entry, looked up, canonical isoform): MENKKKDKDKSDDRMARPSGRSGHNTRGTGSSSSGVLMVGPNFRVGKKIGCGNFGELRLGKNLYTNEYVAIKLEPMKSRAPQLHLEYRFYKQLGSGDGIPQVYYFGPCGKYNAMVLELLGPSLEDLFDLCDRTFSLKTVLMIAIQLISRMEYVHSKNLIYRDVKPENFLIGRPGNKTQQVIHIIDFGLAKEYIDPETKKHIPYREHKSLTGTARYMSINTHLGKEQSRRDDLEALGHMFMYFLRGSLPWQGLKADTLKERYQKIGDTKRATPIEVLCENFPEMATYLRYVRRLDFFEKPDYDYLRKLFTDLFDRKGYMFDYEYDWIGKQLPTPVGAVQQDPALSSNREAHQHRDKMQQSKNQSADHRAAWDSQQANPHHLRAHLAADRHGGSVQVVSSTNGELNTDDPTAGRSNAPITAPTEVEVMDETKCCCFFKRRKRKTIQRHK
Chain of Sodium-dependent serotonin transporter (Homo sapiens) (P31645 whole entry, looked up): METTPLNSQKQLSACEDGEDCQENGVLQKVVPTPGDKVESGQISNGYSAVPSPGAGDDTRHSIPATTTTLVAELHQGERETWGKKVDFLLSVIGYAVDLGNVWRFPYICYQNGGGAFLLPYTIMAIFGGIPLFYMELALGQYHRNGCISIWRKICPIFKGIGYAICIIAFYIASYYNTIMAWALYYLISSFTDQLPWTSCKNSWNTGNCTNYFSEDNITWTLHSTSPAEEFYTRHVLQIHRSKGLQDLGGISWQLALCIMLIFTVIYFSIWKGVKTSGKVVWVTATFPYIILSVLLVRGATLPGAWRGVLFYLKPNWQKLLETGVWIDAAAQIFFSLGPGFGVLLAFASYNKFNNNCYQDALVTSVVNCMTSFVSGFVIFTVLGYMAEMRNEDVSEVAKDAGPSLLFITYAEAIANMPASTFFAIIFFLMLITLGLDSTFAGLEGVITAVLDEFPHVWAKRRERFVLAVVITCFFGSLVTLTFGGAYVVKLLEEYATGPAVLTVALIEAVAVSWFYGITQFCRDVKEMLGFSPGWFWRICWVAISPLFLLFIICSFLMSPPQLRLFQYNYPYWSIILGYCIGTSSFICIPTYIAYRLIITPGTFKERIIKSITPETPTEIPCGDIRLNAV

C[C@@H]1CN(c2cc(-c3n[nH]c4ccc(OC5(C)CC5)cc34)ncn2)C[C@H](C)O1 [MLi-2]
inactive: [1] 3.64% | [2] 2% | [3] 1.77% | [4] 3.21% | [5] -8% | [6] 2.15% | [7] -2.26% | [8] 21% | [9] -7%
